According to patent US6818203B2, “Use of perfluoroalkyl-containing metal complexes as contrast media in MR-imaging for visualization of plaque, tumors and necroses” (Schering Aktiengesellschaft, priority 2000, dated 2004):

Assays:
[1] = hydrodynamic micelle diameter (2 Rh) by photon correlation spectroscopy (PCS); assay type: physicochemical
Text: The amphiphilic compounds according to the invention are combined in solution and are present as aggregates. The size (2 Rh) of such aggregates (e.g., micelles, rods, wafers, etc.) can be determined with the aid of […] (PCS).
As a second criterion, the hydrodynamic micelle diameter 2 Rh, which must be >1 nm, is therefore used. Those perfluoroalkyl-containing metal complexes according to the invention whose 2 RH is ≧3, quite especially preferably >4 nm, are especially suitable.
Both the determination of the CMC and the photon correlation spectroscopy are described in H.-D. Dörfler, “Grenzflächen- und Kolloidchemie [Interface and Colloid Chemistry],” Weinheim, New York, Basel, Cambridge, Tokyo, VSH 1994.

[2] = proton relaxivity in plasma (R^1), Minispec P 20; assay type: physicochemical; settings: 40° C., 0.47 tesla, bovine plasma
Procedure: As a third criterion, the proton-relaxivity in plasma (R^1) at 40° C. and a field strength of 0.47 tesla is used. The relaxivity, which is indicated in [l/mmol·s], is the quantitative measurement for the shortening of relaxation time T^1 of the protons. For the purpose according to the invention, the relaxivity must be as high as possible and >10 l/mmol·s, preferably >13 l/mmol·s, especially preferably >15 l/mmol·s.
Relaxivity R^1 [l/mmol·s] of the MR-contrast media according to the invention was determined with the Minispec P 20 device of the Bruker Company. The measurements were taken at 40° C. and a field strength of 0.47 tesla. Eight measuring points were recorded by each T1-sequence: 180°-TI-90°, inversion recovery. As a medium, bovine plasma of the Kraeber Company was used. The contrast medium concentrations [mmol/l] in the batches were between 0.30 and 1.16.

[3] = system: myocardial infarction; test: infarction visualization (MRT) after intravenous administration in rats with acutely induced myocardial infarction; assay type: in vivo
Text: The successful induction of an acute myocardial infarction was confirmed by means of NBT-staining.

[4] = system: iliac lymph nodes; test: lymph node visualization (MRT) after intravenous administration in VX2-tumor-bearing rabbits; assay type: in vivo; settings: 200 μmol of Gd/kg i.v.; for signal in zones within the lymph node diagnosed as metastases (confirmed histologically): early images
Procedure: The pictures of FIG. 6 show MR images of an iliac lymph node and of a primary tumor (VX2-tumor implanted i.m.) precontrast, 60 minutes and 20 hours after intravenous administration of 100 μmol of Gd/kg of body weight of metal complex I in rabbits. […] The enhancement in the healthy lymph node tissue was 382% at the time of 15 minutes p.i. and 419% at the time of 60 minutes p.i. […] The ratio of signal intensities of healthy lymph node tissue to metastasis was 3.0 at the time of 15 minutes p.i. and 3.4 at the time of 60 minutes p.i. […] The enhancement in the healthy lymph node tissue was 246% at the time of 15 minutes p.i. and 282% at the time of 60 minutes p.i. […] The ratio of signal intensities of healthy lymph node tissue to metastasis was 2.5 at the time of 15 minutes p.i. and 1.7 at the time of 60 minutes p.i. […] The enhancement in the healthy lymph node tissue was 297% at the time of 10 minutes p.i. and 269% at the time of 60 minutes p.i. […] The ratio of signal intensities of healthy lymph node tissue to metastasis was 5.1 at the time of 10 minutes p.i. and 1.9 at the time of 60 minutes p.i. […] The enhancement in the healthy lymph node tissue was 195% at the time of 15 minutes p.i. and 233% at the time of 60 minutes p.i. […] The ratio of signal intensities of healthy lymph node tissue to metastasis was 1.9 at the time of 15 minutes p.i. and 1.8 at the time of 60 minutes p.i.

[5] = system: primary tumor (VX2-tumor implanted i.m.); test: tumor visualization (MRT) after intravenous administration in VX2-tumor-bearing rabbits; assay type: in vivo; settings: 200 μmol of Gd/kg i.v.; for enhancement of the primary tumor (especially the periphery): 15 minutes p.i.
Procedure: The pictures of FIG. 6 show MR images of an iliac lymph node and of a primary tumor (VX2-tumor implanted i.m.) precontrast, 60 minutes and 20 hours after intravenous administration of 100 μmol of Gd/kg of body weight of metal complex I in rabbits. […]

[6] = system: iliac lymph nodes; test: lymph node visualization (MRT) after intravenous administration in rats; assay type: in vivo; settings: for signal in healthy lymph node tissue (T1-weighted gradient-echo images): very shortly after injection
Procedure: (§1) By way of example, the pictures in FIG. 8 show MR images of iliac lymph nodes precontrast and up to 60 minutes after intravenous administration of 100 μmol of Gd/kg of body weight of metal complex X in rats. […] The enhancement was thus 263% at the time of 15 minutes p.i. and 254% at the time of 60 minutes p.i.
as §1, with “11” for “8”, “200” for “100”, “V” for “X”, “147%” for “263%”, “230%” for “254%”
as §1, with “17” for “8”, “200” for “100”, “III” for “X”, “320%” for “263%”, “401%” for “254%”

[7] = 15 minutes p.i., 200 μmol of Gd/kg i.v.
[8] = 60 minutes p.i., 200 μmol of Gd/kg i.v.

2 Rh (hydrodynamic micelle diameter) [1] [nm] | R^1 Plasma (relaxivity) [2] [mmol⁻¹ s⁻¹] | SMILES | signal in healthy lymph node tissue (T1-weighted gradient-echo images) [4] | enhancement in the healthy lymph node tissue ([4]; 15 minutes p.i.) [%] | ratio of signal intensities of healthy lymph node tissue to metastasis ([4]; 15 minutes p.i.) | enhancement in the healthy lymph node tissue ([4]; 60 minutes p.i.) [%] | ratio of signal intensities of healthy lymph node tissue to metastasis ([4]; 60 minutes p.i.) | signal in zones within the lymph node diagnosed as metastases (confirmed histologically) [4] | enhancement of the primary tumor (especially the periphery) [5] [%] | enhancement of the primary tumor (center of the tumor) ([5]; 24 hours p.i.) [%] | enhancement in lymph node tissue [6, 7] [%] | enhancement in lymph node tissue [6, 8] [%] | signal in healthy lymph node tissue (T1-weighted gradient-echo images) ([6]; 200 μmol of Gd/kg i.v.) | other results
5.4 | 25.7 | COCCN(CCOCCC(F)(F)C(F)(F)C(F)(F)C(F)(F)C(F)(F)C(F)(F)C(F)(F)C(F)(F)F)C(=O)CNC(=O)C(C)N1CCN(CC(=O)[O-])CCN(CC(=O)[O-])CCN(CC(=O)[O-])CC1.[Gd+3] (stereo not shown) [metal complex X] | strong signal rise | 382 | 3.0 | 419 | 3.4 | without signal rise | 277 | 217 |  |  |  | signal in the infarction area (T1-weighted spin-echo images) ([3]; 6 hours after i.v. 100 μmol of Gd/kg): strong signal rise; enhancement in lymph node tissue ([6]; 15 minutes p.i., 100 μmol of Gd/kg i.v.): 263%; enhancement in lymph node tissue ([6]; 60 minutes p.i., 100 μmol of Gd/kg i.v.): 254%; signal in healthy lymph node tissue (T1-weighted gradient-echo images) ([6]; 100 μmol of Gd/kg i.v.): strong signal rise
3.2 | 24.9 | O=C([O-])CN1CCN(CC(=O)[O-])CCN(CC(O)CNC(=O)CCCC(=O)N2CCN(C(F)(F)C(F)(F)C(F)(F)C(F)(F)C(F)(F)C(F)(F)C(F)(F)C(F)(F)F)CC2)CCN(CC(=O)[O-])CC1.[Gd+3] (stereo not shown) [metal complex III] | strong signal rise | 195 | 1.9 | 233 | 1.8 | without signal rise | 232 |  | 320 | 401 | strong signal rise | signal in the infarction area (T1-weighted spin-echo images) ([3]; 22 hours after i.v. 100 μmol of Gd/kg): strong signal rise
2.2 | 19.5 | CC(C(=O)NCC(=O)NCC(=O)N1CCN(C(=O)CNC(=O)CNC(=O)C(C)N2CCN(CC(=O)[O-])CCN(CC(=O)[O-])CCN(CC(=O)[O-])CC2)CCN(C(=O)COCCC(F)(F)C(F)(F)C(F)(F)C(F)(F)C(F)(F)C(F)(F)C(F)(F)C(F)(F)F)CCN(C(=O)CNC(=O)CNC(=O)C(C)N2CCN(CC(=O)[O-])CCN(CC(=O)[O-])CCN(CC(=O)[O-])CC2)CC1)N1CCN(CC(=O)[O-])CCN(CC(=O)[O-])CCN(CC(=O)[O-])CC1.[Gd+3].[Gd+3].[Gd+3] (stereo not shown) [metal complex XIV, 1,4,7-Tris{1,4,7-tris(N-(carboxylatomethyl)-10-[N-1-methyl-3,6-diaza-2,5,8-trioxooctane-1,8-diyl]-1,4,7,10-tetraazacyclododecane, Gdcomplex}-10-N-2H,2H,4H,4H,5H,5H-3-oxa-perfluoro-tridecanoyl]-1,4,7,10-tetraazacyclo-dodecane, Gd complex] | strong signal rise |  |  | 269 | 1.9 | without signal rise | 594 |  |  |  |  | signal in the infarction area (T1-weighted spin-echo images) ([3]; 3 hours after i.v. 100 μmol of Gd/kg): strong signal rise; enhancement in the healthy lymph node tissue ([4]; 10 minutes p.i.): 297%; ratio of signal intensities of healthy lymph node tissue to metastasis ([4]; 10 minutes p.i.): 5.1; enhancement of the primary tumor (center of the tumor) ([5]; 120 hours p.i.): 162%
4.4 | 19.6 | CC(C(=O)NCC(=O)N(CCOCCC(F)(F)C(F)(F)C(F)(F)C(F)(F)C(F)(F)C(F)(F)C(F)(F)C(F)(F)F)CC(O)CO)N1CCN(CC(=O)[O-])CCN(CC(=O)[O-])CCN(CC(=O)[O-])CC1.[Gd+3] (stereo not shown) [metal complex V] | strong signal rise | 246 | 2.5 | 282 | 1.7 | without signal rise | 350 | 106 | 147 | 230 | strong signal rise | signal in the infarction area (T1-weighted spin-echo images) ([3]; 24 hours after i.v. 100 μmol of Gd/kg): strong signal rise
